Like-named read-outs stand apart in the source and are kept apart here.
Columns and labels:
OATP1B1 [1] = biological target: T1, OATP1B1 (Homo sapiens, UniProt Q9Y6L6); experiment: In vitro OATP1B1 inhibition, transfected HEK293 cells, rosuvastatin probe; type: cell-based
T1 sequence (Q9Y6L6 1-691): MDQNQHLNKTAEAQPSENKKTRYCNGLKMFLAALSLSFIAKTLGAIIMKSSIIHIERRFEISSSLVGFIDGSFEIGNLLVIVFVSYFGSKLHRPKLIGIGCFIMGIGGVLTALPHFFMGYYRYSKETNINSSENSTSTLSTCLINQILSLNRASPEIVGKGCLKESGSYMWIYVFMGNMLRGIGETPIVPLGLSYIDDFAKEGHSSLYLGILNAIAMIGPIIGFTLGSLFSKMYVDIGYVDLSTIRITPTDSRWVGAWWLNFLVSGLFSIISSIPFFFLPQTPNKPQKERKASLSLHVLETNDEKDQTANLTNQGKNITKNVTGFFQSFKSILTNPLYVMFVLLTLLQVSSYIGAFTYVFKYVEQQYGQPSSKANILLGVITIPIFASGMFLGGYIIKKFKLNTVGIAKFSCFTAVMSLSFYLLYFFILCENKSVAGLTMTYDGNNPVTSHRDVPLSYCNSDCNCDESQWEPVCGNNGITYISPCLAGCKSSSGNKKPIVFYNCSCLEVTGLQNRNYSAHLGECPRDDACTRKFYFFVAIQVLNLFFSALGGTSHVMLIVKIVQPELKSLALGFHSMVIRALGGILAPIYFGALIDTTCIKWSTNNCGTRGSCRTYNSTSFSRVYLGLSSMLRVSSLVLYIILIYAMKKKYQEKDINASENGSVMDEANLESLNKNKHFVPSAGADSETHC

OATP1B3 [2] = biological target: T2, OATP1B3 (Homo sapiens, UniProt Q9NPD5); experiment: In vitro OATP1B3 inhibition, transfected HEK293 cells, rosuvastatin probe; type: cell-based
T2 sequence (Q9NPD5 1-702): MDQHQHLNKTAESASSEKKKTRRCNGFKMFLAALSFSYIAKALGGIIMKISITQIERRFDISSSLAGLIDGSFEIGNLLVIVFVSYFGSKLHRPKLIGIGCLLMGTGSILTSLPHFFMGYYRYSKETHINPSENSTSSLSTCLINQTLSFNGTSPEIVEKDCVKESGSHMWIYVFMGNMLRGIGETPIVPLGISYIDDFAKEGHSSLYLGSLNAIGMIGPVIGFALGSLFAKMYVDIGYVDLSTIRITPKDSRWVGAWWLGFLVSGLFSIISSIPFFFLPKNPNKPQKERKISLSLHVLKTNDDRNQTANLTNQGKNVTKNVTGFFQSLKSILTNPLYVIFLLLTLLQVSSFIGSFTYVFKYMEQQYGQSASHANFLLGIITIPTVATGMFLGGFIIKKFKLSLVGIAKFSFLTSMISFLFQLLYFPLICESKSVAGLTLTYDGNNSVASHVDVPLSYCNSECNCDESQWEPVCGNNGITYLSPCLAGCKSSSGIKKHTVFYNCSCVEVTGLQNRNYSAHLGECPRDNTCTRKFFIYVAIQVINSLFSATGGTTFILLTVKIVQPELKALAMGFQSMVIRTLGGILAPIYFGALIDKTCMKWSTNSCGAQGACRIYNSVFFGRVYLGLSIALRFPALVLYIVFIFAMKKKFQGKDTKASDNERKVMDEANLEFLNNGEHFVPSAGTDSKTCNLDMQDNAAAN

OATP1B3 [3] = biological target: T2, OATP1B3; experiment: Static DDI risk assessment, OATP1B3 R-value; conditions: 1 + Iin,max,u/IC50; metabolite/combination additive; Imax,u for IV
[4] = cited from earlier work; for Rosuvastatin AUC ratio: observed, rosuvastatin with vs without inhibitor; for Rosuvastatin AUC ratio / Cmax ratio Observed: ref Table S1; for Cmax ratio Observed: rosuvastatin with/without inhibitor, regimens as in table row
OATP1B1 [5] = biological target: T1, OATP1B1; experiment: Static DDI risk assessment, OATP1B1 R-value; conditions: 1 + Iin,max,u/IC50; metabolite/combination additive; Imax,u for IV
BCRP = biological target: T3, BCRP (Homo sapiens, UniProt Q9UNQ0); experiment: In vitro BCRP inhibition, HEK293-BCRP membrane vesicles, rosuvastatin probe; type: biochemical
T3 sequence (Q9UNQ0 1-655): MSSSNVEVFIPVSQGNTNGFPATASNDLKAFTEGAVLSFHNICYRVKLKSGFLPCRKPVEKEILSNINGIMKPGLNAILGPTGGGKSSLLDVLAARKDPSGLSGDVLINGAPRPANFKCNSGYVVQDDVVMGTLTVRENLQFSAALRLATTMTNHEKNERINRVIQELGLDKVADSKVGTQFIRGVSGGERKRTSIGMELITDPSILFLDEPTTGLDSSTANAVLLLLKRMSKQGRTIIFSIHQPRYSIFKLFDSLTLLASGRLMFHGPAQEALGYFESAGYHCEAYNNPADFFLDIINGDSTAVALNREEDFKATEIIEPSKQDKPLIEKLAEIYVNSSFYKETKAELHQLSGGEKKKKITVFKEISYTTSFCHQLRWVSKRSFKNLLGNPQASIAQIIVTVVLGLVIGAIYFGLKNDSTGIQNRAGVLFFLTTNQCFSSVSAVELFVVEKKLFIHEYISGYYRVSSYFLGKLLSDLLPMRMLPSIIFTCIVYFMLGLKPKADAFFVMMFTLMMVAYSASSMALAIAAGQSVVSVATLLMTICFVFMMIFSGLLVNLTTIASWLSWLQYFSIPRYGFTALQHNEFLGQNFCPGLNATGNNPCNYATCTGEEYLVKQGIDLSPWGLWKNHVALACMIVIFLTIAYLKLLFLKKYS

[6] = read-out: BCRP IC50, membrane vesicles, rosuvastatin 0.2 µM probe

## COC(=O)N[C@H](C(=O)N1CCC[C@H]1c1nc(-c2ccc3c(c2)O[C@@H](c2ccccc2)n2c-3cc3cc(-c4c[nH]c([C@@H]5CCCN5C(=O)[C@@H](NC(=O)OC)C(C)C)n4)ccc32)c[nH]1)C(C)C [Elbasvir]
OATP1B1 [1]
  IC50: 7.8 µM
OATP1B3 [2]
  IC50: > 10 µM
OATP1B3 [3]
  1B3 R-Value: 1.00
[4]
  Rosuvastatin AUC ratio: 1.42
OATP1B1 [5]
  1B1 R-Value: 1.00
BCRP
  IC50: 0.14 µM

## CC[C@H](Nc1ncnc2[nH]cnc12)c1nc2cccc(F)c2c(=O)n1-c1ccccc1 [Idelalisib]
OATP1B1 [1]
  IC50: 3.13 µM
OATP1B3 [2]
  IC50: 7 µM
OATP1B1 [5]
  1B1 R-Value: 1.19
BCRP
  IC50: 54.4 µM

## CCCN(CCC)S(=O)(=O)c1ccc(C(=O)O)cc1 [Probenecid]
OATP1B3 [2]
  IC50: 339 µM
OATP1B3 [3]
  1B3 R-Value: 1.11
[4]; probenecid 1000 mg
  reduction of renal clearance of rosuvastatin: ~80%
OATP1B1 [5]
  1B1 R-Value: 1.99
BCRP
  IC50: 216 µM

## CC(O)C(C)n1ncn(-c2ccc(N3CCN(c4ccc(OCC5COC(Cn6cncn6)(c6ccc(Cl)cc6Cl)O5)cc4)CC3)cc2)c1=O (stereo not drawn) [Hydroxy‐itraconazole]
OATP1B1 [1]
  IC50: 1.4 µM

## COc1cc(Nc2ncc(F)c(Nc3ccc4c(n3)N(COP(=O)(O)O)C(=O)C(C)(C)O4)n2)cc(OC)c1OC [Fostamatinib]
OATP1B1 [1]
  IC50: 0.89 µM
OATP1B3 [2]
  IC50: 7.4 µM
[4]
  Rosuvastatin AUC ratio: 1.95
  Cmax ratio Observed: 1.90
BCRP
  IC50: 2 µM

## CC(=O)c1cc(C(=O)N[C@@H](C)Cn2ccc(-c3ccc(C#N)c(Cl)c3)n2)[nH]n1 [Keto‐darolutamide]
BCRP; [6]
  IC50: 0.56 µM

## CC(C)(C)c1ccc(S(=O)(=O)Nc2ccc(Cl)cc2C(=O)c2cc[n+]([O-])cc2)cc1 [Vercirnon]
OATP1B1 [1]
  IC50: 2.1 µM
[4]
  Rosuvastatin AUC ratio: 0.99
OATP1B1 [5]
  1B1 R-Value: 2.02
BCRP
  IC50: 3.3 µM

## CNC(=O)c1ccc(-c2cnc3ncc(Cc4ccc5ncccc5c4)n3n2)cc1F [Capmatinib]
OATP1B1 [1]
  IC50: 3.3 µM
OATP1B3 [2]
  IC50: 14.5 µM
OATP1B3 [3]
  1B3 R-Value: 1.08
[4]
  Rosuvastatin AUC ratio: 2.03
  Cmax ratio Observed: 3.05
OATP1B1 [5]
  1B1 R-Value: 1.35
BCRP
  IC50: 0.69 µM

## CCCc1nc2c(C)cc(-c3nc4ccccc4n3C)cc2n1Cc1ccc(-c2ccccc2C(=O)O)cc1 [Telmisartan]
OATP1B1 [1]
  IC50: 3.06 µM
OATP1B3 [3]
  1B3 R-Value: 1.03
[4]
  Rosuvastatin AUC ratio: 1.20
OATP1B1 [5]
  1B1 R-Value: 1.01
BCRP
  IC50: 0.61 µM

## Cc1ccc(C)c(OCCCC(C)(C)C(=O)O)c1 [Gemfibrozil]
OATP1B3 [2]
  IC50: 10 µM
OATP1B3 [3]
  1B3 R-Value: 1.15
[4]
  Rosuvastatin AUC ratio: 1.88
  Cmax ratio Observed: 2.21
OATP1B1 [5]
  1B1 R-Value: 2.60
BCRP
  IC50: 295 µM

## C[C@](O)(COc1ccc(C#N)cc1)C(=O)Nc1ccc(C#N)c(C(F)(F)F)c1 [Enobosarm]
[4]
  Rosuvastatin AUC ratio: 1.18
OATP1B1 [5]
  1B1 R-Value: 1.00
BCRP
  IC50: 1.1 µM

## CC[C@H]1OC(=O)[C@H](C)[C@@H](O[C@H]2C[C@@](C)(OC)[C@@H](O)[C@H](C)O2)[C@H](C)[C@@H](O[C@@H]2O[C@H](C)C[C@H](N(C)C)[C@H]2O)[C@](C)(OC)C[C@@H](C)C(=O)[C@H](C)[C@@H](O)[C@]1(C)O [Clarithromcyin]
OATP1B3 [3]
  1B3 R-Value: 1.35
[4]
  Rosuvastatin AUC ratio: 1.58
OATP1B1 [5]
  1B1 R-Value: 1.99
BCRP; [6]
  IC50: 411 µM

## COc1ccnc(C[S+]([O-])c2nc3ccc(OC(F)F)cc3[nH]2)c1OC (stereo not drawn) [Pantoprazole]
OATP1B1 [1]
  IC50: > 500 µM
OATP1B3 [2]; human, HEK293 cells transfected with OATP1B3, pH 7.4, probe rosuvastatin 0.3 µM
  IC50 at 1 min: > 500 µM
OATP1B1 [5]
  1B1 R-Value: 1.01
BCRP
  IC50: 6.1 µM

## CC(C)c1noc(N2CCC(COc3ccc(-c4ccc(S(C)(=O)=O)cc4)nc3)CC2)n1 [GSK1292263]
OATP1B1 [1]
  IC50: > 30 µM
[4]
  Rosuvastatin AUC ratio: 1.39
OATP1B1 [5]
  1B1 R-Value: 1.03
BCRP
  IC50: 3 µM

## COC[C@H]1C[C@@H](c2ncc(-c3ccc4c(c3)COc3cc5c(ccc6nc([C@@H]7CC[C@H](C)N7C(=O)[C@@H](NC(=O)OC)C(C)C)[nH]c65)cc3-4)[nH]2)N(C(=O)[C@H](NC(=O)OC)c2ccccc2)C1 [Velpatasvir]
OATP1B3 [3]
  1B3 R-Value: 1.02
[4]
  Rosuvastatin AUC ratio: 2.59
  Cmax ratio Observed: 2.50
OATP1B1 [5]
  1B1 R-Value: 1.00
BCRP
  IC50: 0.09 µM

## CC[C@H]1[C@@H](O)[C@@H]2[C@H](CC[C@]3(C)[C@@H]([C@H](C)CCC(=O)O)CC[C@@H]23)[C@@]2(C)CC[C@@H](O)C[C@@H]12 [Obeticholic acid]
OATP1B1 [1]
  IC50: 1.96 µM
OATP1B3 [2]
  IC50: 2.15 µM
OATP1B3 [3]
  1B3 R-Value: 1.02
[4]
  Rosuvastatin AUC ratio: 1.25
OATP1B1 [5]
  1B1 R-Value: 1.02
BCRP
  IC50: 4.1 µM

## COc1cc(Nc2ncc(F)c(Nc3ccc4c(n3)NC(=O)C(C)(C)O4)n2)cc(OC)c1OC [R406]
BCRP; [6]
  IC50: 0.065 µM

## CCC(C)n1ncn(-c2ccc(N3CCN(c4ccc(OCC5COC(Cn6cncn6)(c6ccc(Cl)cc6Cl)O5)cc4)CC3)cc2)c1=O (stereo not drawn) [Itraconazole]
OATP1B1 [1]
  IC50: 12.9 µM
OATP1B3 [2]
  IC50: > 20 µM
OATP1B3 [3]
  1B3 R-Value: 1.00
[4]
  Rosuvastatin AUC ratio: 1.26
  Cmax ratio Observed: 1.38
OATP1B1 [5]
  1B1 R-Value: 1.01
BCRP
  IC50: 3.2 µM

## O=c1ccc2ccc(OCCCCN3CCN(c4cccc5sccc45)CC3)cc2[nH]1 [Brexpiprazole]
OATP1B1 [1]
  IC50: 13.2 µM
[4]
  Rosuvastatin AUC ratio: 1.12
OATP1B1 [5]
  1B1 R-Value: 1.00
BCRP
  IC50: 100 µM

## CC(O)c1cc(C(=O)N[C@@H](C)Cn2ccc(-c3ccc(C#N)c(Cl)c3)n2)[nH]n1 (stereo partly drawn) [Darolutamide]
OATP1B3 [2]
  IC50: 20.2 µM
OATP1B3 [3]
  1B3 R-Value: 1.02
[4]
  Rosuvastatin AUC ratio: 5.50
  Cmax ratio Observed: 5.50
[4]; listed as darolutamide
  Rosuvastatin AUC ratio: > 5
OATP1B1 [5]
  1B1 R-Value: 1.09
BCRP
  IC50: 0.09 µM

## O=C(O)C[C@H]1CC[C@H](c2ccc(-c3ccc(Nc4ccc(C(F)(F)F)nc4)cn3)cc2)CC1 [Pradigastat]
OATP1B1 [1]
  IC50: 1.48 µM
OATP1B3 [3]
  1B3 R-Value: 1.01
[4]
  Rosuvastatin AUC ratio: 0.96
OATP1B1 [5]
  1B1 R-Value: 1.03
BCRP
  IC50: 0.71 µM

## CO[C@H]1/C=C/O[C@@]2(C)Oc3c(C)c(O)c4c(O)c(c(/C=N/N5CCN(C)CC5)c(O)c4c3C2=O)NC(=O)/C(C)=C\C=C\[C@H](C)[C@H](O)[C@@H](C)[C@@H](O)[C@@H](C)[C@H](OC(C)=O)[C@@H]1C [Rifampicin]
OATP1B1 [1]
  IC50: 0.29 µM
OATP1B3 [2]
  IC50: 0.73 µM
OATP1B3 [3]
  1B3 R-Value: 4.65
OATP1B1 [5]
  1B1 R-Value: 10.20

## COC(=O)N[C@H](C(=O)N1CCC[C@H]1c1nc(-c2ccc(-c3ccc(-c4c[nH]c([C@@H]5CCCN5C(=O)[C@@H](NC(=O)OC)C(C)C)n4)cc3)cc2)c[nH]1)C(C)C [Daclatasvir]
OATP1B3 [3]
  1B3 R-Value: 1.08
[4]
  Rosuvastatin AUC ratio: 1.47
OATP1B1 [5]
  1B1 R-Value: 1.18
BCRP
  IC50: 1.1 µM

From PMC8452302 (CPT: Pharmacometrics & Systems Pharmacology, 2021)
